Each structure is given as a SMILES string. Numbers after ± are expanded uncertainties.

Consider seven compounds from the NIST ThermoML archive (doi:10.1016/j.jct.2017.02.023).

Assay in one series: not given
The settings on record: 298.15 K; 81.5 kPa; Liquid; Vibrating tube method.
One may read the mass density as mass per unit of volume. On to `CC(C)O` [propan-2-ol], for which the mass density is 781.05 ± 1.6 kg/m3.

Turning to `CCCC(C)O` (configuration not stated) [pentan-2-ol], the mass density amounted to 805.37 ± 1.6 kg/m3.

As to `CCC(C)O` (configuration not stated) [butan-2-ol], the mass density was determined as 802.71 ± 1.6 kg/m3.

With `CCCCC(C)O` (configuration not stated) [2-hexanol], the mass density amounted to 810.17 ± 1.6 kg/m3.

As to `CCCCCC(C)O` (configuration not stated) [2-heptanol], the mass density is 813.36 ± 1.6 kg/m3.

Turning to `CNC1CCCCC1` [N-methylcyclohexylamine], the mass density is 865.2 ± 1.6 kg/m3.

For `CCCCCCC(C)O` (configuration not stated) [2-octanol], the mass density is reported as 817.05 ± 1.6 kg/m3.

Staying with this series, now noted: 308.15 K; 81.5 kPa; Liquid; Vibrating tube method.
For `CC(C)O` [propan-2-ol], the mass density turned out to be 772.41 ± 1.6 kg/m3.

For `CCCC(C)O` (configuration not stated) [pentan-2-ol], the mass density is 796.95 ± 1.6 kg/m3.

Take `CCC(C)O` (configuration not stated) [butan-2-ol]: the mass density came out at 794.2 ± 1.6 kg/m3.

For `CCCCC(C)O` (configuration not stated) [2-hexanol], the mass density is listed as 801.94 ± 1.6 kg/m3.

`CCCCCC(C)O` (configuration not stated) [2-heptanol]: the mass density was found to be 805.72 ± 1.6 kg/m3.

With `CNC1CCCCC1` [N-methylcyclohexylamine], the mass density is recorded as 856.57 ± 1.6 kg/m3.

Take `CCCCCCC(C)O` (configuration not stated) [2-octanol]: the mass density stood at 809.43 ± 1.6 kg/m3.

Still in this series, the particulars now being: 318.15 K; 81.5 kPa; Liquid; Vibrating tube method.
For `CC(C)O` [propan-2-ol], the mass density amounted to 763.41 ± 1.6 kg/m3.

Consider `CCCC(C)O` (configuration not stated) [pentan-2-ol], for which the mass density came to 788.38 ± 1.6 kg/m3.

As for `CCC(C)O` (configuration not stated) [butan-2-ol], the mass density stood at 785.32 ± 1.6 kg/m3.

`CCCCC(C)O` (configuration not stated) [2-hexanol]: the mass density is listed as 793.57 ± 1.6 kg/m3.

Regarding `CCCCCC(C)O` (configuration not stated) [2-heptanol], the mass density is recorded as 797.65 ± 1.6 kg/m3.

With `CNC1CCCCC1` [N-methylcyclohexylamine], the mass density was determined as 847.67 ± 1.6 kg/m3.

For the compound `CCCCCCC(C)O` (configuration not stated) [2-octanol], the mass density amounted to 801.32 ± 1.6 kg/m3.

Staying with this series, now noted: 328.15 K; 81.5 kPa; Liquid; Vibrating tube method.
As to `CC(C)O` [propan-2-ol], the mass density stood at 753.12 ± 1.6 kg/m3.

As for `CCCC(C)O` (configuration not stated) [pentan-2-ol], the mass density was determined as 779.17 ± 1.6 kg/m3.

Consider `CCC(C)O` (configuration not stated) [butan-2-ol], for which the mass density came to 775.52 ± 1.6 kg/m3.

With `CCCCC(C)O` (configuration not stated) [2-hexanol], the mass density turned out to be 784.6 ± 1.6 kg/m3.

For `CCCCCC(C)O` (configuration not stated) [2-heptanol], the mass density was 789.38 ± 1.6 kg/m3.

With `CNC1CCCCC1` [N-methylcyclohexylamine], the mass density is on record as 838.68 ± 1.6 kg/m3.

On to `CCCCCCC(C)O` (configuration not stated) [2-octanol], for which the mass density was found to be 793.06 ± 1.6 kg/m3.

A further series is described as follows: refractive index (Na D-line) (dimensionless). Particulars: 298.15 K; 81.5 kPa; Liquid; Standard Abbe refractometry.
One may read the refractive index as the speed of light in vacuum divided by its phase velocity in the sample. As for `CC(C)O` [propan-2-ol], the refractive index worked out at 1.37511 ± 0.0016.

`CCCC(C)O` (configuration not stated) [pentan-2-ol]: the refractive index came out at 1.4045 ± 0.0016.

Take `CCC(C)O` (configuration not stated) [butan-2-ol]: the refractive index was determined as 1.39544 ± 0.0016.

In the case of `CCCCC(C)O` (configuration not stated) [2-hexanol], the refractive index was determined as 1.41296 ± 0.0016.

`CCCCCC(C)O` (configuration not stated) [2-heptanol]: the refractive index was 1.41924 ± 0.0016.

In the case of `CNC1CCCCC1` [N-methylcyclohexylamine], the refractive index was determined as 1.45306 ± 0.0016.

Take `CCCCCCC(C)O` (configuration not stated) [2-octanol]: the refractive index is reported as 1.42483 ± 0.0016.

Still in this series, the particulars now being: 308.15 K; 81.5 kPa; Liquid; Standard Abbe refractometry.
With `CC(C)O` [propan-2-ol], the refractive index amounted to 1.37097 ± 0.0016.

On to `CCCC(C)O` (configuration not stated) [pentan-2-ol], for which the refractive index came out at 1.40029 ± 0.0016.

Regarding `CCC(C)O` (configuration not stated) [butan-2-ol], the refractive index was 1.39105 ± 0.0016.

With `CCCCC(C)O` (configuration not stated) [2-hexanol], the refractive index was found to be 1.40853 ± 0.0016.

`CCCCCC(C)O` (configuration not stated) [2-heptanol]: the refractive index stood at 1.41505 ± 0.0016.

For `CNC1CCCCC1` [N-methylcyclohexylamine], the refractive index worked out at 1.44812 ± 0.0016.

As to `CCCCCCC(C)O` (configuration not stated) [2-octanol], the refractive index stood at 1.42073 ± 0.0016.

Staying with this series, now noted: 318.15 K; 81.5 kPa; Liquid; Standard Abbe refractometry.
Regarding `CC(C)O` [propan-2-ol], the refractive index is 1.36665 ± 0.0016.

For `CCCC(C)O` (configuration not stated) [pentan-2-ol], the refractive index is recorded as 1.39586 ± 0.0016.

In the case of `CCC(C)O` (configuration not stated) [butan-2-ol], the refractive index came out at 1.38646 ± 0.0016.

In the case of `CCCCC(C)O` (configuration not stated) [2-hexanol], the refractive index is listed as 1.40413 ± 0.0016.

`CCCCCC(C)O` (configuration not stated) [2-heptanol]: the refractive index turned out to be 1.41076 ± 0.0016.

On to `CNC1CCCCC1` [N-methylcyclohexylamine], for which the refractive index worked out at 1.4431 ± 0.0016.

In the case of `CCCCCCC(C)O` (configuration not stated) [2-octanol], the refractive index is listed as 1.41648 ± 0.0016.

Still in this series, the particulars now being: 328.15 K; 81.5 kPa; Liquid; Standard Abbe refractometry.
`CC(C)O` [propan-2-ol]: the refractive index was 1.36181 ± 0.0016.

Turning to `CCCC(C)O` (configuration not stated) [pentan-2-ol], the refractive index came to 1.39126 ± 0.0016.

As to `CCC(C)O` (configuration not stated) [butan-2-ol], the refractive index is 1.38175 ± 0.0016.
